Data: patent US20250082656A1, “DOSAGE REGIMENS FOR TREATMENT OF DENGUE INFECTION” (Atea Pharmaceuticals, Inc., priority 2022, published 2025)
Like-named read-outs stand apart in the source and are kept apart here.

Key:
[1] = Multiple-dose tolerability and steady state exposure, mice; format: in vivo, CD-1 mice
Method: There were no adverse clinical signs observed in the mice so the multiple doses of the prodrug were well-tolerated.
Separately, two mouse studies with multiple dosing were conducted. First, 9 naïve CD-1 mice were administered Compound 1 (AT-281) in 100 mM citrate buffer, pH 4.5 by oral gavage at 500 mg/kg for the first dose and, 4 h later, 250 mg/kg for the second dose. Blood samples were collected, 3 animals per time point, at 4 (before the second dosing), 8 and 16 h post the first dose, and PBMCs isolated. Secondly, 9 naïve CD-1 mice were administered Compound 1 (AT-281) by oral gavage at 1000 mg/kg for the first dose, and then 4 h later, they were given twice daily doses 12 hours apart for 3 consecutive days at 500 mg/kg. Blood samples were collected, 3 animals per time point, at 16 (received one 500 mg/kg dose), 40 (received three 500 mg/kg doses) and 76 h post first dose (received six 500 mg/kg doses), and PBMCs were isolated.
(§1) Pharmacokinetic measurements for FIGS. 11, 12, 13, 14, and 15 were analyzed using LC-MS/MS according to the protocol described herein. Plasma samples were prepared for MS analysis by adding internal standards and extracting with 20 volumes chilled ACN. After vortex (800 rpm for 10 min) and centrifugation (4,000 rpm, 15 min, 4° C.), the supernatants (25 μL) were diluted with an equal volume of H2O, mixed and spun again. After adding internal standards, the PBMC samples (10^6 cells) were lyzed with 300 μL MeOH/H2O (70:30, v/v) and 40 mM dibutylammonium acetate (DBAA), mixed by vortex and centrifuged (12,000 rpm, 15 min, 4° C.). Aliquots of the supernatants (35 μL) were dried under nitrogen and reconstituted in H2O, then mixed and spun again. […] A binary nonlinear gradient with mobile phases A (0.1% formic acid in water) and B (0.1% formic acid in ACN) were used to elute samples at 0.8 mL/min, with a run time of 5 min. […] A binary nonlinear gradient with mobile phases A (0.001% NHr H2O, 0.18 mM DBAA in H2O) and B (10 mM N,N-dimethyl-hexylamine, 3 mM NH4OAc in ACN/H2O (50.50, v/v)) were used to elute samples at 0.5 mL/min, with a run time of 3 min. Standards in 50% MeOH were used for calibration. […] Internal standards (ISS) as described previously (Good et al., Preclinical evaluation of AT-527, a novel guanosine nucleotide prodrug with potent, pan-genotypic activity against hepatitis C virus. PLos One 15:e02271045) were used to correct for variations in recovery.

[2] = Plasma PK after single oral dose of AT-752, rats; format: in vivo, SD rats; conditions: Rat, single oral AT-752 300 mg/kg
Method: (§2) Male SD rats were administered 300 mg/kg Compound 2 (AT-752). Blood samples were collected up to 24 hrs. post dose, plasma separated and analyzed for Compound 1 (AT-281), Compound 3 (AT-551), and Compound 6 (AT-273) by LC-MS/MS. Data are express as mean+/−SD (n=3-5/time point). The x-axis is time post the dose measured in hours and the y-axis is the plasma concentration of the metabolites measured in nanomoles/mL). The experimental procedure is provided in Example 14.
Male naïve SD rats (Beijing Vital River Laboratory Animals Co. Ltd., China) were administered a dose of AT-752 at 300 mg/kg in 40% PEG400, 10% solutol HS15, 50% 100 mM citrate buffer, pH 4.5 (v/v) by oral gavage. Blood samples (n=4) were collected at 1, 2, 4, 8, 12 and 24 h post-dose, plasma separated and stored at −70° C. […] For PBMCs, nine male naïve SD rats were administered a dose of Compound 2 (AT-752) (at a Compound 1 (AT-281) equivalent dose of 300 mg/kg) by oral gavage.
as §1
(§3) Data analysis of the pharmacokinetic data generated according to Example 21 and presented in FIGS. 11, 12, 13, 14, and 15 was analyzed according to the procedure described herein. Plasma concentrations of Compound 1 (AT-281), Compound 3 (AT-551) and Compound 6 (AT-273) were subjected to non-compartmental pharmacokinetic analysis using Phoenix WinNonlin software (version 6.3 or above, Pharsight, Mountain View, CA). The linear/log trapezoidal rule was applied in obtaining the PK parameters.

[3] = Plasma PK after single oral dose of AT-752, monkeys; format: in vivo, cynomolgus monkeys; conditions: Monkey, single oral AT-752 300 mg/kg
Method: as §2, with “cynomolgus monkeys” for “SD rats”
Male non-naïve cynomolgus monkeys (Hainan Jingang Laboratory Animal Co. Ltd., China), at least 2 kg body weight, were individually housed during the study in stainless steel mesh cages, provided ad libitum access to RO water, fed twice daily (except on the day of dosing when they were fed once) with ˜60 g Certified Monkey Diet each feed (Beijing Vital Keao Feed Co., Ltd., Beijing, China) and given daily treats of fresh fruit. They (n=5) were administered a dose of Compound 2 (AT-752) at 300 mg/kg in 40% PEG400, 10% solutol HS15, 50% 100 mM citrate buffer, pH 4.5 (v/v) by oral gavage, and blood samples (˜0.5 mL) were collected at 1, 2, 4, 8, 12 and 24 h post dose. Plasma was separated at each time point for pharmacokinetics, and stored at −70° C. […] Separately, three monkeys were given an oral dose of Compound 2 (AT-752) as powder in capsules at 60 mg/kg ([…] (AT-281) equivalent dose of 55 mg/kg), and blood samples collected at 12, 24 and 48 h post dose.
as §1, §3

[4] = for AUCtau / Cmax / Tmax: steady-state, human plasma; for AUCtau / Cmax: mean±SD; for Tmax: median (minimum-maximum)
[5] = 1000 mg/kg loading then 500 mg/kg twice a day for 3 days, 12 h after the sixth 500 mg/kg dose
[6] = 1000 mg/kg loading then 500 mg/kg twice a day, 12 h after the first 500 mg/kg dose

With `C[C@@]1(F)[C@H](O)[C@@H](CO)O[C@H]1n1cnc2c(=O)[nH]c(N)nc21` [Compound 6, 2′-fluoro-2′-C-methylguanosine] the plasma concentration [1, 5] was 1350 ± 860 nM, the plasma concentration [1, 6] was 670 ± 120 nM and the AUC0-24 h ([2]; plasma) was 22.9 µM·h. The Cmax ([2]; plasma) was 1300 ± 300 nM, the Tmax ([2]; plasma) was 8.0 ± 0.0 h and the AUC0-24 h ([3]; plasma) was 7.8 ± 2.4 µM·h. For the same molecule, the Cmax ([3]; plasma) was 800 ± 200 nM, the “increase of plasma exposure on multiple dosing” value (shortened to “increase of plasma exposure”) ([4]; BID) was about 60% and the “increase of plasma exposure” value ([4]; QD) was “approximately 25%”. For the same molecule, the “increase of plasma exposure” value ([4]; TID) was about 80%, the AUCtau ([4]; Compound 2 750 mg BID) was 2680 ± 730 ng·h/mL and the Cmax ([4]; Compound 2 750 mg BID) was 288 ± 58 ng/mL. The Tmax ([4]; Compound 2 750 mg BID) was 3.5 (3.0-4.0) h, the AUCtau ([4]; Compound 2 750 mg TID) was 2370 ± 743 ng·h/mL and the Cmax ([4]; Compound 2 750 mg TID) was 330 ± 98 ng/mL. The Tmax ([4]; Compound 2 750 mg TID) was 3.5 (3.0-6.0) h, the AUCtau ([4]; Compound 2 1000 mg QD) was 3120 ± 694 ng·h/mL and the Cmax ([4]; Compound 2 1000 mg QD) was 241 ± 56 ng/mL. For the same molecule, the Tmax ([4]; Compound 2 1000 mg QD) was 4.0 (3.0-4.0) h.

For `CNc1nc(N)nc2c1ncn2[C@@H]1O[C@H](CO[P@](=O)(N[C@@H](C)C(=O)OC(C)C)Oc2ccccc2)[C@@H](O)[C@@]1(C)F` [Compound 1, isopropyl ((R)-(((2R,3R,4R,5R)-5-(2-amino-6-(methylamino)-9H-purin-9-yl)-4-fluoro-3-hydroxy-4-methyltetrahydrofuran-2-yl)methoxy)(phenoxy)phosphoryl)-L-alaninate], the “tolerability of multiple doses (adverse clinical signs)” value ([1]; 1000 mg/kg loading then 500 mg/kg twice a day for 3 days) was “well-tolerated”, the “plasma concentration at 1 h, the earliest time point measured” value [2] was “below the limit of quantitation” and the “time present in plasma” value [3] was “more than 4 h”. It also gave an AUC0-24 h ([3]; plasma) of 9.5 ± 3.7 µM·h, a Cmax ([3]; plasma) of 3700 ± 1500 nM and a Tmax ([3]; plasma) of 1 h. For the same molecule, the Tmax ([4]; Compound 2 750 mg TID) was 0.5 (0.5-1.0) h.

For `C[C@@]1(F)[C@H](O)[C@@H](COP(=O)(O)OP(=O)(O)OP(=O)(O)O)O[C@H]1n1cnc2c(=O)[nH]c(N)nc21` [Compound 5], the “concentration of AT-9010 in pooled PBMCs” value [1, 5] was 0.575 pmol/10^6 cells and the “concentration of AT-9010 in pooled PBMCs” value [1, 6] was 0.421 pmol/10^6 cells.
